Key:
MDA-MB-231 cells [1] = test: Transwell ECM-based invasion assay, MDA-MB-231; type: cell-based, human; details: for inhibition of tumor cell invasion: MDA-MB-231, three GSK3 inhibitors, FIG. 7B
Procedure: To experimentally test the in silico predictions made by Cosiner™ and to pursue an inhibitor of metastasis, an in vitro ECM-based invasion assay was performed. An invasion assay is an in vitro proxy for the process of cells migrating and breaking through the extracellular matrix as would occur in the body during metastasis. All three GSK3A/GSK3B inhibitors tested were effective at inhibiting the invasion of the human triple negative breast cancer cell model MDA-MB-231 cells (FIG. 7B). […] Cell viability was determined at 10 μM by CellTiter-Glo® (CTG). […] At 10 μM doses, off-target effects can confound pharmacologic interpretations not to mention that it is unlikely to be a physiologically feasible dose for mice or humans. The viability at for each of the line as tested with each of these drugs was 76.4% for CHIR-99021 and 80.5% for 6-BIO 10 μM of drug by CTG.
(§1) Culture medium was removed when cells reached 80% confluence. Cultures were gently rinsed with PBS to remove all the remaining serum. Serum-free medium was added to the cultures and they were incubated overnight at 37° C. 5% CO2.
(§2) 786-O. NCI-H460, NCI-H226, MDA-MB-231 and DU-145 cells were tested in transwells with 3 μm pores. HCT-116, PC-3, MDA-MB-453 and COLO-205 cells were tested in transwells with 8 μm pores.
(§3) First, the Matrigel® was thawed in an ice bath in a refrigerator (4° C.) overnight. Matrigel® was then diluted into serum-free, cold cell culture media (1:8 dilution). 20 μL of diluted Matrigel®) was added into each well of BD Falcon™ Multiwell 96-well cell culture inserts. Transwell inserts were incubated at 37° C., for at least 4 to 5 hours for gelling. Before use, the transwells were rehydrated by adding 100 μL PBS to the insert and incubated at 37° C., in ambient air for 2 hours.
Cells were harvested using Trypsin and washed once with serum free medium. Cells were resuspended with serum-free medium. The 786-O cell density was adjusted to 2×10^5 cells/mL; the NCI-H460 and NCI-H226 cell density was adjusted to 5×10^6 cells/mL; the MDA-MB-231 and DU-145 cell density was adjusted to 1×10^6 cells/mL; the HCT-116 cell density was adjusted to 5×10^6 cells/mL; the PC-3 cell density to 1×10^6 cell/mL; the MDA-MB-453 cell density was adjusted to 5×10^5 cells/mL; and the COLO-205 cell density was adjusted to 2×10^6 cells/mL.
Cells were pre-treated with compounds, which were dissolved in DMSO and diluted to the desired concentration in culture medium. The pretreatment was performed in Ultra-low attachment multiwell plates. 90 μL cells and 10 μL compound solution were mixed in each well of the plate. The plate was covered with a lid and incubated for 60 minutes. 50 μL of cells was seeded onto each top insert, which was pre-coated with 1:8 diluted Matrigel®. 180 μL of warm (37° C.) culture medium containing 10% FBS was added to the lower chamber of the transwell plate. 200 μL serum-free medium and 20 μL of compound dilution was added to the indicated lower chamber as the negative control. The 96-Multiwell Insert system was transferred to the incubator for 16 hours at 37° C., and 5% CO2. Next, the insert was transferred to a new plate. The lower chambers were centrifuged at 3000 rpm for 5 minutes and then washed twice with PBS.
The insert was transferred back to the lower chamber and 200 μL of the DiTC12(3) fluorescent dye solution was added. The final concentration of DiIC12(3) was 5 μg/mL. Plates were incubated for 30 minutes at 37° C., and 5% CO2. The plates were then washed with PBS twice. The invaded/migrated cells were monitored by reading fluorescence at 530/590 nm on a PerkinElmer EnSpire™ plate reader.
Percent inhibition for compound was calculated using Formula 6.
The positive control was DMSO treated and had medium with 10% FBS (average of 3 wells per cell line) in receiver well. The negative control was DMSO treated with no FBS in the receiver well (average of 3 wells per cell line). […]

MDA-MB-231 cells [2] = test: CellTiter-Glo viability, MDA-MB-231; type: cell-based, human; details: MDA-MB-231, 10 μM of drug
Procedure: (§4) Viability was determined at the maximum drug concentration measured in a given experiment via CellTiter-Glo® (CTG) per manufacturers recommendations: https://www.promega.com/-/media/files/resources/protocols/technical-bulletins/0/celltiter-glo-luminescent-cell-viability-assay-protocol.pdf?la=en.

[3] = CellTiter-Glo viability, MDA-MB-231; type: cell-based, human; details: human, MDA-MB-231 cells; for viability at 10 µM: MDA-MB-231, 10 μM of drug
Procedure: as §4

[4] = CellTiter-Glo viability, DU-145; type: cell-based; details: human, DU-145 cells; DU-145, 600 nM; read-out: cell viability by CellTiter-Glo
Procedure: as §4

[5] = CellTiter-Glo viability, 786-O; type: cell-based; details: human, 786-O cells, 600 nM, assay threshold 80%, read-out: cell viability by CellTiter-Glo
Procedure: as §4

[6] = tested on: 786-O (renal cancer) cells; test: Transwell invasion assay, 786-O; type: cell-based; details: cell line panel, FIG. 9A
Procedure: as §1, §2, §3
(§5) Cells were harvested using Trypsin and washed once with serum free medium. Cells were resuspended with serum-free medium. […]
(§6) The insert was transferred back to the lower chamber and 200 μL of the DiTC12(3) fluorescent dye solution was added. […] The invaded/migrated cells were monitored by reading fluorescence at 530/590 nm on a PerkinElmer EnSpire™ plate reader.
(§7) Percent inhibition for compound was calculated using Formula 6. […]

[7] = CellTiter-Glo viability, NCI-H460; type: cell-based; details: human, NCI-H460 cells; NCI-H460, 600 nM; read-out: cell viability by CellTiter-Glo
Procedure: as §4

A549 (lung cancer) cells = test: Transwell invasion assay, A549; type: cell-based; details: A549, previous experiment, FIG. 9B
Procedure: as §1, §3
Cells were pre-treated with compounds, which were dissolved in DMSO and diluted to the desired concentration in culture medium. The pretreatment was performed in Ultra-low attachment multiwell plates. 90 μL cells and 10 μL compound solution were mixed in each well of the plate. The plate was covered with a lid and incubated for 60 minutes. […]
as §6, §7

[8] = tested on: COLO-205 (colon cancer) cells; test: Transwell invasion assay, COLO-205; type: cell-based; details: COLO-205, cell line panel, FIG. 9B
Procedure: as §1, §2, §3, §5, §6, §7

[9] = tested on: HCT-116 (colon cancer) cells; test: Transwell invasion assay, HCT-116; type: cell-based; details: HCT-116, cell line panel, FIG. 9B; low baseline invasiveness
Procedure: as §1, §2, §3, §5, §6, §7

[10] = CellTiter-Glo viability, COLO-205; type: cell-based; details: human, COLO-205 cells; COLO-205, 600 nM; read-out: cell viability by CellTiter-Glo
Procedure: as §4

[11] = tested on: NCI-H460 (lung cancer) cells; test: Transwell invasion assay, NCI-H460; type: cell-based; details: NCI-H460, cell line panel, FIG. 9A
Procedure: as §1, §2, §3, §5, §6, §7

[12] = CellTiter-Glo viability, MDA-MB-453; type: cell-based; details: human, MDA-MB-453 cells; MDA-MB-453, 600 nM; read-out: cell viability by CellTiter-Glo
Procedure: as §4

[13] = CellTiter-Glo viability, PC-3; type: cell-based; details: human, PC-3 cells; PC3, 600 nM; read-out: cell viability by CellTiter-Glo
Procedure: as §4

[14] = tested on: NCI-H226 (lung cancer) cells; test: Transwell invasion assay, NCI-H226; type: cell-based; details: NCI-H226, cell line panel, FIG. 9A
Procedure: as §1, §2, §3, §5, §6, §7

[15] = CellTiter-Glo viability, A549; type: cell-based; details: human, A549 cells; A549, 600 nM; read-out: cell viability by CellTiter-Glo
Procedure: as §4

[16] = tested on: DU-145 (prostate cancer) cells; test: Transwell invasion assay, DU-145; type: cell-based; details: DU-145, cell line panel, FIG. 9A
Procedure: as §1, §2, §3, §5, §6, §7

[17] = tested on: PC-3 (prostate cancer) cells; test: Transwell invasion assay, PC-3; type: cell-based; details: PC-3, cell line panel, FIG. 9A
Procedure: as §1, §2, §3, §5, §6, §7

[18] = CellTiter-Glo viability, NCI-H226; type: cell-based; details: human, NCI-H226 cells; NCI-H226, 600 nM; read-out: cell viability by CellTiter-Glo
Procedure: as §4

[19] = tested on: MDA-MB-453 (breast cancer) cells; test: Transwell invasion assay, MDA-MB-453; type: cell-based; details: MDA-MB-453, cell line panel, FIG. 9B; low baseline invasiveness
Procedure: as §1, §2, §3, §5, §6, §7

[20] = CellTiter-Glo viability, HCT-116; type: cell-based; details: human, HCT-116 cells; HCT-166 (so in the source), 600 nM; read-out: cell viability by CellTiter-Glo
Procedure: as §4

[21] = read-out: cell viability by CellTiter-Glo

Which “inhibition of tumor cell invasion” value (MDA-MB-231 cells [1]) does the source give for O=C1Nc2cc(Br)ccc2/C1=C1/Nc2ccccc2/C1=N\O [6-BIO] here?
Its value is “inhibited tumor cell invasion but only at the higher dose levels tested (e.g., 1-10 μM)”.

What about the “cell viability by CellTiter-Glo” value (MDA-MB-231 cells [2]) of the same compound?
The value was 80.5%.

What does the source list for Cc1c[nH]c(-c2cnc(NCCNc3ccc(C#N)cn3)nc2-c2ccc(Cl)cc2Cl)n1 [CHIR-99021]?
inhibition of tumor cell invasion (MDA-MB-231 cells [1]): inhibited tumor cell invasion but only at the higher dose levels tested (e.g., 1-10 μM); viability at 10 µM [3, 21]: 76.4%

What does the source list for O=C1NC(=O)C(c2cnc3ccccn23)=C1c1cn2c3c(cc(F)cc13)CN(C(=O)N1CCCCC1)CC2 [LY-2090314]?
viability at 0.6 µM [4]: ~100%; IC50 (MDA-MB-231 cells [1]; Homo sapiens, MDA-MB-231, dose response FIG. 8, average of 6 wells, read-out: 50% inhibition of baseline invasion): ~5 nM; inhibition of invasion (MDA-MB-231 cells [1]; MDA-MB-231, cell line panel, FIG. 9A, average of 6 wells): markedly inhibited; dose of maximal inhibition of tumor cell invasion (MDA-MB-231 cells [1]; MDA-MB-231, dose response FIG. 8, average of 6 wells): approximately 24 nM; inhibition of tumor cell invasion (MDA-MB-231 cells [1]): inhibited tumor cell invasion at all concentrations tested; viability at 0.6 µM [5]: 83%; inhibition of invasion [6]: markedly inhibited; viability at 0.6 µM [7]: ~100%; inhibition of invasion (A549 (lung cancer) cells): did not significantly inhibit; inhibition of invasion [8]: did not significantly inhibit; inhibition of invasion [9]: did not significantly inhibit; viability at 0.6 µM [10]: ~100%; inhibition of invasion [11]: markedly inhibited; viability at 0.6 µM [12]: ~100%; viability at 0.6 µM [13]: ~100%; inhibition of invasion [14]: markedly inhibited; viability at 0.6 µM [15]: 99.3%; inhibition of invasion [16]: markedly inhibited; inhibition of invasion [17]: markedly inhibited; viability at 0.6 µM [18]: ~100%; viability at 0.6 µM ([3]; MDA-MB-231, 600 nM of drug, dose response experiment (FIG. 8), read-out: cell viability by CellTiter-Glo): 93.5%; viability at 0.6 µM ([3]; MDA-MB-231, 600 nM, cell line panel experiment (FIG. 9A)): 95.5%; viability at 10 µM [3, 21]: ~100%; inhibition of invasion [19]: did not significantly inhibit; viability at 0.6 µM [20]: ~97.7%

Source: patent US11942223B1, “Systems and methods for rapid gene set enrichment analysis” (Immuneering Corporation, priority 2018, dated 2024)
